We go through 1 compound from patent US20250041476A1, “ENHANCED PERFORMANCE SOLUTION FOR TISSUE GRAFTS” (The Curators of the University of Missouri, priority 2020, published 2025).

Series [1] concerns integrin β1. The conditions noted are these: chondrocytes; cited from earlier work.
A short description of series [2]: Modulated differential scanning calorimetry of tissue scaffolds. The format is physicochemical. As to the method: Following crosslinking, five specimens (n=5) from the 7 treatment types were rinsed in DI water and placed in an aluminum pan with a hermetic lid. The treatment types were EDC/NHS, untreated, 15 minutes crosslinking with 3 mM genipin, 4 hours crosslinking with 3 mM genipin, 8 hours crosslinking with 3 mM genipin, 24 hours crosslinking with 3 mM genipin, and 24 hours crosslinking with 10 mM genipin. The 10 mM treatment type was added to verify that increasing the genipin concentration would further increase the amount of crosslinking that occurred. The reference pan consisted of an aluminum pan containing […] of double distilled water and sealed with a hermetic lid. Each specimen was then subjected to modulated differential scanning calorimetry using a Q2000 DSC (TA Instruments, New Castle, DE, USA) to raise the temperature from 5° C. to 120° C. at a rate of 5° C. per minute with a modulation of ±0.64° C. every 80 s. The mean denaturation temperature is reported.
(DSC measures the heat that a sample takes up or gives off during a temperature scan.)

In series [3] the test system is L929 mouse connective tissue fibroblasts. The experiment in a line: Cell proliferation reagent WST-1 cell viability assay on scaffolds. The format is cell-based. The conditions noted are these: scaffolds crosslinked with 3 mM genipin. How it is done:
L-929 mouse fibroblast cells were obtained from ATCC (Manassas, VA). They were cultured in EMEM (ATCC, Manassas, VA, USA) supplemented with 10% (v/v) horse serum (Sigma-Aldrich, St. Louis, MO, USA) and 200 U mL^−1 penicillin-streptomycin (Sigma-Aldrich, St. Louis, MO, USA) solution in an incubator at 37° C. and 5% CO2. 1 mL of 3×10^4 cell/mL cell solution was plated on each scaffold and allowed to grow for 1, 3, 7, or 10 days with fresh media being replaced every […].
Cell proliferation reagent WST-1 (Roche Diagnostics Corporation, Indianapolis, IN, USA) was used to evaluate the biocompatibility of the scaffolds. The WST-1 assay works via the use of tetrazolium salts. The salts were added to wells containing cells and the tissue discs. The tetrazolium salts were then cleaved to formazan by mitochondrial dehydrogenase activity. This correlates to the number of metabolically active cells. The resulting formazan was quantified using UV-vis absorbance measurements. […] After gentle mixing, 100 μL was removed from each well and absorbance readings were acquired using a Tecan Safire II plate reader. The resulting values were then calculated relative to the absorbance found on the untreated control scaffold. […]
A general note: Tetrazolium assays rely on reduction of a dye to a coloured formazan, in cell work by metabolically active cells.

SMILES strings stand for the structures.

As to `COC(=O)C1=CO[C@@H](O)[C@@H]2C(CO)=CC[C@H]12` [genipin, methyl (1S,2R,6S)-2-hydroxy-9-(hydroxymethyl)-3-oxabicyclo[4.3.0]nona-4,8-diene-5-carboxylate], the “mRNA expression of integrin β1” value in series [1] is “halved”. The “Denaturation temperature of tissue scaffold” value in series [2] (15 minutes of genipin crosslinking, 3 mM, vs untreated) is listed as “significantly increases”; in series [2] (24 hours of crosslinking, 3 mM genipin) it was “significant increase”; in series [2] (higher genipin concentration (10 mM vs 3 mM), 24 hours) it was “significantly increased”. In addition, in series [3], the “Cytotoxicity (biocompatibility results)” value was “not cytotoxic”.
